Here are results for 16 compounds from US12012417B2, “N-substituted tetrahydrothienopyridine derivatives and uses thereof” (NOVARTIS AG, priority 2018, dated 2024).

SMILES strings stand for the structures. Structures can show the parent of a compound that is named as a salt.

Assay [1] has as its system Dengue 3 virus MY05-34640-WT-C6/36. Put plainly: High-content imaging cell-based flavivirus immunodetection (HCl-CFI) assay, Dengue 3. The conditions noted are these: Dengue virus, A549, 48 h, read-out: Dengue 3 virus MY05-34640-WT-C6/36 in A549 using HCl [Inhibitor/IC50] Qualified AC50.
The subject of assay [2] is Dengue 1 virus MY97-10245. Put plainly: High-content imaging cell-based flavivirus immunodetection (HCl-CFI) assay, Dengue 1. To be noted: Dengue virus, A549, 48 h, read-out: Dengue 1 virus MY97-10245 in A549 using HCl [Inhibitor/IC50] Qualified AC50.
For assay [3], the system named is Dengue 4 virus MY01-22713. The assay can be described thus: High-content imaging cell-based flavivirus immunodetection (HCl-CFI) assay, Dengue 4. To be noted: Dengue virus, A549, 48 h, read-out: Dengue 4 virus MY01-22713 in A549 using HCl [Inhibitor/IC50] Qualified AC50, A549 cells, 48 h, viral E protein expression.
Assay [4] deals with Dengue 2 virus MY97-10340. The assay can be described thus: High-content imaging cell-based flavivirus immunodetection (HCl-CFI) assay, Dengue 2. To be noted: Dengue virus, A549, 48 h, read-out: Dengue 2 virus MY97-10340 in A549 using HCl [Inhibitor/IC50] Qualified AC50, A549 cells, MOI 0.3, 48 h, viral E protein expression. Put shortly:
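A549 cells infected at MOI 0.3, treated with 3-fold, 10-point compound dilutions for 48 h. After paraformaldehyde fixation, viral E protein immunostained with 4G2 antibody and nuclei counterstained; imaged by high-content imaging. EC50 = concentration reducing E protein expression by 50%, from dose-response curves.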

For the compound `CC1(C)Cc2sc(NC(=O)Cc3ccc4c(c3)C(CN)CS4(=O)=O)c(C#N)c2CN1CC1CCCCC1` (stereo not shown) [Example 74, 2-(3-(aminomethyl)-1,1-dioxido-2,3-dihydrobenzo[b]thiophen-5-yl)-N-(3-cyano-5-(cyclohexylmethyl)-6,6-dimethyl-4,5,6,7-tetrahydrothieno[3,2-c]pyridin-2-yl)acetamide], the EC50 in assay [1], in assay [2], in assay [3] and in assay [4] was 100 to 1000 nM throughout.

Take `CN(C(=O)Cc1ccc(S(N)(=O)=O)cc1)c1sc2c(c1C#N)CN(CC1CCCCC1)C(C)(C)C2` [Example 75, N-(3-cyano-5-(cyclohexylmethyl)-6,6-dimethyl-4,5,6,7-tetrahydrothieno[3,2-c]pyridin-2-yl)-N-methyl-2-(4-sulfamoylphenyl)acetamide]: the EC50 in assay [1], in assay [2], in assay [3] and in assay [4] was > 1000 nM throughout.

Regarding `CCC1(CC)Cc2sc(NC(=O)Cc3ccc(S(N)(=O)=O)cc3)c(C#N)c2CN1CC1CCCCC1` [Example 76, N-(3-cyano-5-(cyclohexylmethyl)-6,6-diethyl-4,5,6,7-tetrahydrothieno[3,2-c]pyridin-2-yl)-2-(4-sulfamoylphenyl)acetamide], the EC50 in assay [1], in assay [2], in assay [3] and in assay [4] was < 100 nM in each case.

For `CCOc1cc(CC(=O)Nc2sc3c(c2C#N)CN(CC2CC(F)(F)C2)C(C)(C)C3)ccc1S(N)(=O)=O` [Example 78, N-(3-cyano-5-((3,3-difluorocyclobutyl)methyl)-6,6-dimethyl-4,5,6,7-tetrahydrothieno[3,2-c]pyridin-2-yl)-2-(3-ethoxy-4-sulfamoylphenyl)acetamide], the EC50 was < 100 nM in assay [1], 100 to 1000 nM in assay [2], < 100 nM in assay [3] and < 100 nM in assay [4].

In the case of `CCC1(CC)Cc2sc(NC(=O)Cc3ccc(S(N)(=O)=O)cc3)c(C#N)c2CN1CC1CC(F)(F)C1` [Example 79, N-(3-cyano-5-((3,3-difluorocyclobutyl)methyl)-6,6-diethyl-4,5,6,7-tetrahydrothieno[3,2-c]pyridin-2-yl)-2-(4-sulfamoylphenyl)acetamide], the EC50 in assay [1], in assay [2], in assay [3] and in assay [4] was < 100 nM each time.

With `CC1(C)CS(=O)(=O)c2ccc(CC(=O)Nc3sc4c(c3C#N)CN(Cc3cccc(F)c3)C(C)(C)C4)cc21` [Example 80, N-(3-cyano-5-(3-fluorobenzyl)-6,6-dimethyl-4,5,6,7-tetrahydrothieno[3,2-c]pyridin-2-yl)-2-(3,3-dimethyl-1,1-dioxido-2,3-dihydrobenzo[b]thiophen-5-yl)acetamide], the EC50 is < 100 nM in assay [1], 100 to 1000 nM in assay [2], < 100 nM in assay [3] and < 100 nM in assay [4].

In the case of `CC1(C)Cc2sc(NC(=O)Cc3ccc(S(N)(=O)=O)cc3)c(C#N)c2CN1Cc1cccc(F)c1` [Example 81, N-(3-cyano-5-(3-fluorobenzyl)-6,6-dimethyl-4,5,6,7-tetrahydrothieno[3,2-c]pyridin-2-yl)-2-(4-sulfamoylphenyl)acetamide], the EC50 in assay [1] is < 100 nM; in assay [2], 100 to 1000 nM; in assay [3], < 100 nM; in assay [4] it was < 100 nM.

For `COc1cc(CC(=O)Nc2sc3c(c2C#N)CN(CC2CCCCC2)C(C)(C)C3)ccc1S(N)(=O)=O` [Example 82, N-(3-cyano-5-(cyclohexylmethyl)-6,6-dimethyl-4,5,6,7-tetrahydrothieno[3,2-c]pyridin-2-yl)-2-(3-methoxy-4-sulfamoylphenyl)acetamide], the EC50 in assay [1], in assay [2], in assay [3] and in assay [4] was < 100 nM each time.

With `N#Cc1c(NC(=O)Cc2ccc(S(N)(=O)=O)s2)sc2c1CN(CC1CCCCC1)CC2` [Example 84, N-(3-cyano-5-(cyclohexylmethyl)-4,5,6,7-tetrahydrothieno[3,2-c]pyridin-2-yl)-2-(5-sulfamoylthiophen-2-yl)acetamide], the EC50 in assay [1], in assay [2], in assay [3] and in assay [4] was < 100 nM throughout.

As to `CC1Cc2sc(NC(=O)Cc3ccc(S(N)(=O)=O)cc3)c(C#N)c2CN1Cc1cc(F)cc(F)c1` (stereo not shown) [Example 85, N-(3-cyano-5-(3,5-difluorobenzyl)-6-methyl-4,5,6,7-tetrahydrothieno[3,2-c]pyridin-2-yl)-2-(4-sulfamoylphenyl)acetamide], the EC50 is < 100 nM in assay [1], 100 to 1000 nM in assay [2], < 100 nM in assay [3] and < 100 nM in assay [4].

As to `COCCOc1cc(CC(=O)Nc2sc3c(c2C#N)CN(Cc2cccc(F)c2)C(C)C3)ccc1S(N)(=O)=O` (stereo not shown) [Example 86, N-(3-cyano-5-(3-fluorobenzyl)-6-methyl-4,5,6,7-tetrahydrothieno[3,2-c]pyridin-2-yl)-2-(3-(2-methoxyethoxy)-4-sulfamoylphenyl)acetamide], the EC50 in assay [1] is < 100 nM; in assay [2], 100 to 1000 nM; in assay [3] it was < 100 nM; in assay [4], < 100 nM.

As to `CCC1Cc2sc(NC(=O)Cc3ccc(S(N)(=O)=O)cc3)c(C#N)c2CN1Cc1cccc(F)c1` (stereo not shown) [Example 87, N-(3-cyano-6-ethyl-5-(3-fluorobenzyl)-4,5,6,7-tetrahydrothieno[3,2-c]pyridin-2-yl)-2-(4-sulfamoylphenyl)acetamide], the EC50 was < 100 nM in assay [1], 100 to 1000 nM in assay [2], < 100 nM in assay [3] and < 100 nM in assay [4].

Consider `Cn1cc(S(N)(=O)=O)cc1CC(=O)Nc1sc2c(c1C#N)CN(CC1CCCCC1)CC2` [Example 88, N-(3-cyano-5-(cyclohexylmethyl)-4,5,6,7-tetrahydrothieno[3,2-c]pyridin-2-yl)-2-(1-methyl-4-sulfamoyl-1H-pyrrol-2-yl)acetamide], for which the EC50 is < 100 nM in assay [1], 100 to 1000 nM in assay [2], < 100 nM in assay [3] and < 100 nM in assay [4].

Regarding `CCOc1cc(CC(=O)Nc2sc3c(c2C#N)CN(Cc2cccc(F)c2)CC3)ccc1C(N)=O` [Example 89, 4-(2-((3-cyano-5-(3-fluorobenzyl)-4,5,6,7-tetrahydrothieno[3,2-c]pyridin-2-yl)amino)-2-oxoethyl)-2-ethoxybenzamide], the EC50 in assay [1], in assay [2], in assay [3] and in assay [4] was 100 to 1000 nM in each case.

Regarding `CC(c1ccccc1)N1CCc2c(sc(NC(=O)Cc3ccc(S(N)(=O)=O)cc3)c2C#N)C1` (stereo not shown) [Example 90, N-(3-cyano-6-(1-phenylethyl)-4,5,6,7-tetrahydrothieno[2,3-c]pyridin-2-yl)-2-(4-sulfamoylphenyl)-acetamide hydrochloride], the EC50 in assay [1] was 100 to 1000 nM; in assay [2], > 1000 nM; in assay [3], 100 to 1000 nM; in assay [4] it was 100 to 1000 nM.

`N#Cc1c(NC(=O)Cc2ccc(S(N)(=O)=O)cc2)sc2c1CCN(CC1CCCCC1)C2` [Example 92, N-(3-cyano-6-(cyclohexylmethyl)-4,5,6,7-tetrahydrothieno[2,3-c]pyridin-2-yl)-2-(4-sulfamoylphenyl) acetamide]: the EC50 in assay [1] was 100 to 1000 nM; in assay [2], 100 to 1000 nM; in assay [3] it was < 100 nM; in assay [4], < 100 nM.
